Source: publication PMC5429769, “Rational development of Stafib-2: a selective, nanomolar inhibitor of the transcription factor STAT5b” (Scientific Reports, 2017)
Substitutions are numbered along the chain they refer to.

Tests used:
Format in all cases: binding
STAT5b Arg618Ala = biological target: T1, STAT5b Arg618Ala (Homo sapiens, UniProt P51692, R618A); assay: Isothermal titration calorimetry, STAT5b Arg618Ala; conditions: ITC, 25 °C
T1 sequence (P51692 1-787 R618A): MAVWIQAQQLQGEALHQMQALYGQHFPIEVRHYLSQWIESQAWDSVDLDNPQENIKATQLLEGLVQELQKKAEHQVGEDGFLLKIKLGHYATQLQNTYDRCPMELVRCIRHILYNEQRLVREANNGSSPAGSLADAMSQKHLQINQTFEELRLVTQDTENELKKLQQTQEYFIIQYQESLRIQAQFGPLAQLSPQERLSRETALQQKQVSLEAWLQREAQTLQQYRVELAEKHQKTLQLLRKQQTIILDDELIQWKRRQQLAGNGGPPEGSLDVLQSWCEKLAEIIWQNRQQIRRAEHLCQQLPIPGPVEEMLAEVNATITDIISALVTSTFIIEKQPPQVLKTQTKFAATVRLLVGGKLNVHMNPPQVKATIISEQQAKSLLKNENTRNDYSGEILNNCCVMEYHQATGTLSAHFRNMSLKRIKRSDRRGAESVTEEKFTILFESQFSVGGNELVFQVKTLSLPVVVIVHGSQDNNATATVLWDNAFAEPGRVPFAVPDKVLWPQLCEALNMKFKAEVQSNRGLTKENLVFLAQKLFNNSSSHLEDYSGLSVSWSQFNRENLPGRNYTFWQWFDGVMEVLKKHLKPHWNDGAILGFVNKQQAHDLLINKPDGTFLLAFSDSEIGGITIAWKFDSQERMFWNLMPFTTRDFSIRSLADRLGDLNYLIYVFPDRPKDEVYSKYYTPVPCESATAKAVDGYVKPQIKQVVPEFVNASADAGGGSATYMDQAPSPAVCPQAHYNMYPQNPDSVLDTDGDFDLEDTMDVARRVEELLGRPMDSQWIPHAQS

STAT5b Lys600Ala = biological target: T2, STAT5b Lys600Ala (Homo sapiens, UniProt P51692, K600A); assay: Isothermal titration calorimetry, STAT5b Lys600Ala; conditions: ITC, 25 °C
T2 sequence (P51692 1-787 K600A): T1 sequence (P51692 1-787 R618A) with K600A, A618R

STAT5a wild-type = biological target: T3, STAT5a wild-type (Homo sapiens, UniProt P42229); assay: Isothermal titration calorimetry, STAT5a wild-type
T3 sequence (P42229 1-794): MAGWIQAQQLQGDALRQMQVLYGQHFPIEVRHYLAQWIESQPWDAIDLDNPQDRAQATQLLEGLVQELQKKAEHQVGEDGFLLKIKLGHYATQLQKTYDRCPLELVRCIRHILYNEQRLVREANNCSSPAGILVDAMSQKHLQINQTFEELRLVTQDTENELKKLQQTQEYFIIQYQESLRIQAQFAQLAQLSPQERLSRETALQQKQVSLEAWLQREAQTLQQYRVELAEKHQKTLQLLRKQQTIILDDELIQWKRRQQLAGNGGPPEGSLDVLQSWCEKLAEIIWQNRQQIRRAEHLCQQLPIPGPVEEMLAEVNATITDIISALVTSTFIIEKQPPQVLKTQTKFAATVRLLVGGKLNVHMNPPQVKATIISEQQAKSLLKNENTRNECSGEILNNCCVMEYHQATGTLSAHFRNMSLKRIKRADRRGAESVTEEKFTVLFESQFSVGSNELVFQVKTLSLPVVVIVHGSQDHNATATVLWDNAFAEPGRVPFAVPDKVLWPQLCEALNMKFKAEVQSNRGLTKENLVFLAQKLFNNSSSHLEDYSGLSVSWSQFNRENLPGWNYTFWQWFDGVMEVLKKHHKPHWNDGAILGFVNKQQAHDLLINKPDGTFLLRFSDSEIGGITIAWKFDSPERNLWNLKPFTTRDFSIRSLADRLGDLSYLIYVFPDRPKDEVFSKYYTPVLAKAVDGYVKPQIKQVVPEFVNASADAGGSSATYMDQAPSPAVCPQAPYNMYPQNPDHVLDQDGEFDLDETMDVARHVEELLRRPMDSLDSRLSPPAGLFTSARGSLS

Structure (SMILES): O=C(COc1ccc(C(=O)Nc2ccc(Oc3ccccc3)cc2)cc1)NCc1ccc(OP(=O)(O)O)c(OP(=O)(O)O)c1 [compound 4, 4-((2-(4-((4-phenoxyphenyl)carbamoyl)phenoxy)acetamido)methyl)-1,2-phenylene bis(dihydrogen phosphate)]
- Kd (STAT5b Arg618Ala): 5.6 ± 1.7 µM
- Kd (STAT5b Lys600Ala): 23 ± 10 µM
- fold lower affinity for STAT5a than for STAT5b (STAT5a wild-type; ITC Kd STAT5a vs wild-type STAT5b): approximately 20 fold
- Kd (STAT5a wild-type; ITC, 25 °C, STAT5a): 6.1 ± 3.2 µM
